pIC50, pKi: −log10 of the molar value. Where a name gives a salt, the structure may show the parent alone. Read-outs that look alike come from different tables or passages of the source.
What was measured:
[1] = tested on: rats; details: cited from earlier work
[2] = target: T1, 5-HT1A Sites (Rattus norvegicus, UniProt P19327); assay: biochemical; format: binding
T1 sequence (P19327 1-422): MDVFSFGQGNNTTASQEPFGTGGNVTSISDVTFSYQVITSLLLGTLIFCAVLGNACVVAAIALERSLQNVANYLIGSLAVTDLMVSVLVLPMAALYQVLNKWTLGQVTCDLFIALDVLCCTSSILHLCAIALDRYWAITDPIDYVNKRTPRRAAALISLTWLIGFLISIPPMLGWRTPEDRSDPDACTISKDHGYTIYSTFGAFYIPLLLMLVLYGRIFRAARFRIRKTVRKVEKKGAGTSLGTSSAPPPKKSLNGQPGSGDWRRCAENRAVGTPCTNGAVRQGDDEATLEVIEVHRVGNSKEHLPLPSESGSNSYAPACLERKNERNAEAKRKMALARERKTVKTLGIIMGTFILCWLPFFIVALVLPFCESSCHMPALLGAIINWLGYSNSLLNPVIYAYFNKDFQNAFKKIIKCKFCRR

[3] = target: T2, 5-HT2A Sites (Rattus norvegicus, UniProt P14842); assay: Drug affinity for 5-HT2A sites (3H-Ketanserin binding, cerebral cortex); details: Radioligand 3H-Ketanserin; tissue cerebral cortex
T2 construct: Radioligand: ^3 H-Ketanserin Tissue: Cerebral cortex; from tissue; host or cells: cerebral cortex

[4] = target: T3, [3H]-5-HT uptake by synaptosomes from rat frontal cortex (Rattus norvegicus, UniProt P31652); assay: Uptake of [3H]-5-HT by synaptosomes from rat frontal cortex; format: biochemical
T3 construct: synaptosomes from rat frontal cortex; from tissue; host or cells: rat frontal cortex synaptosomes

[5] = tested on: monkeys; details: cited from earlier work
[6] = tested on: alcohol-dependent individuals; details: compared to placebo; cited from earlier work
[7] = tested on: alcohol preferring (P) rats; assay: Effect on alcohol intake in alcohol preferring (P) rats; format: in vivo, rat
Experimental: To further illustrate the useful pharmacological properties of compounds of formula (I), the effect of Compound A administered systematically was determined in alcohol preferring (P) rats. Because of its pattern of drinking, the P animal seems to represent a valid genetically based model to approximate the human condition of alcoholism (McBride et al., Alcohol 7:199-205, 1990; Lankford et al., Pharmacol. Biochem. Behav. 8:293-299,1991). After maximally preferred alcohol concentrations had stabilised for four days, Compound A in a dose of 2.5 and 10 mg/kg was administered twice a day over four consecutive days. […] The highest dose of Compound A reduced intake of alcohol by >40%.

[8] = Radioligand 3H-8-OH-DPAT, tissue hippocampus

T2 sequence (P14842 whole entry): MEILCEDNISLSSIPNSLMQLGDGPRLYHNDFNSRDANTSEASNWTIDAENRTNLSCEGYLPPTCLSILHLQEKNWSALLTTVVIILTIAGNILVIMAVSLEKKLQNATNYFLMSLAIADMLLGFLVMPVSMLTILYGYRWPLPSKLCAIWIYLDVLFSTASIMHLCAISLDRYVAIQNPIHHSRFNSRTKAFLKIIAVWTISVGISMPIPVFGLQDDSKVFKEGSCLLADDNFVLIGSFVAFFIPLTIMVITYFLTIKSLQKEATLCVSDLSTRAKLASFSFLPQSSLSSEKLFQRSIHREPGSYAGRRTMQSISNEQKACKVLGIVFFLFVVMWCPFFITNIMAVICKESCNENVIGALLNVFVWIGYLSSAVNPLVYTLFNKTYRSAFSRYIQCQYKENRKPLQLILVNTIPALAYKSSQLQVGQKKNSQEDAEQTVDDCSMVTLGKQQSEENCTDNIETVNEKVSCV
T3 sequence (P31652 whole entry): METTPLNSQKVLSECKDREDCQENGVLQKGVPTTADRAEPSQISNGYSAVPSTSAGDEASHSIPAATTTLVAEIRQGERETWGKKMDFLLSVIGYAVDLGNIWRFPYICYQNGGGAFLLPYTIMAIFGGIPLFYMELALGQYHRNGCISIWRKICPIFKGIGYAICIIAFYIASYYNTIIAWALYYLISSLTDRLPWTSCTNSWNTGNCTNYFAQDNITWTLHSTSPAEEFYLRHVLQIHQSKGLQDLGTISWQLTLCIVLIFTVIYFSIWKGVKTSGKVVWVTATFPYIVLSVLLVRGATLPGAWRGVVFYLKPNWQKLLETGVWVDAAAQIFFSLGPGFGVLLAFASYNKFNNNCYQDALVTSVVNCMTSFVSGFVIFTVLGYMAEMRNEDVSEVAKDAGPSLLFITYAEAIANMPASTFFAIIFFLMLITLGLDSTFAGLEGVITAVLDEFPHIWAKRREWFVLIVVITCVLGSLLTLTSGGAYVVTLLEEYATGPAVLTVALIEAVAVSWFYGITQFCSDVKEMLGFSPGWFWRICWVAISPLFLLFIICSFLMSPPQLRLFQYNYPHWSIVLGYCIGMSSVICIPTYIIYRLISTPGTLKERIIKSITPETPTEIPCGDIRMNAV

## CCNC(=O)N1CCN(CCCC(c2ccc(F)cc2)c2ccc(F)cc2)CC1 [Amperozide, reference compound]
[1]
  Intake of alcohol: significantly attenuate
[2]
  pKi: 6.09
[3]
  pKi: 7.80
[4]
  pIC50: 6.49

## O=C1CC2(CCCC2)CC(=O)N1CCCCN1CCN(c2ncccn2)CC1 [Buspirone]
[5]
  Consumption of alcohol: attenuate significantly
[6]
  Drop-out rate: lower drop-out rate
  Signs of craving: fewer signs of craving

## Cc1cccc(N2CCN(CCCCc3ccc(F)cc3)CC2)n1.O=C(O)/C=C/C(=O)O [Compound A, 1-[4-(p-fluorophenyl)-butyl]-4-(6-methyl-2-pyridinyl)-piperazine fumarate]
[2]; [8]
  pKi: 9.05
[3]
  pKi: 8.00
[4]
  pIC50: 4.92
[7]; after Compound A injections
  Food and water after injections: returned to pre-drug levels
[7]; both doses, 2.5 and 10 mg/kg twice a day over four days, during administration
  Intake of alcohol (absolute g/kg and proportion of alcohol to total fluid intake): significantly reduced
[7]; each dose, during the period of injection
  Ingestion of food and water: increased the ingestion of food and water above pre-treatment levels
[7]; five days following administration, intakes rebounded
  Alcohol intakes after administration versus pre-treatment level: still being significantly lower than those of the pre-treatment level
[7]; highest dose (10 mg/kg) twice a day over four consecutive days
  Reduction of intake of alcohol: > 40%

## CCOc1cccnc1N1CCN(CCCCc2ccc(F)cc2)CC1 [Compound B, 1-[4-(p-fluorophenyl)-butyl]-4-(3-ethoxy-2-pyridinyl)-piperazine fumarate]
[2]; [8]
  pKi: 8.77
[3]
  pKi: 8.80

## COC(=O)c1cccnc1N1CCN(CCCC(c2ccc(F)cc2)c2ccc(F)cc2)CC1 [FG5893, 2-[4-[4,4-bis(4-fluorophenyl)butyl]-1-piperazinyl]-3-pyridine-carboxylic acid methyl ester dihydrochloride ethylat, reference compound]
[2]; [8]
  pKi: 9.15
[4]; synaptosomes from rat frontal cortex, concentration which inhibits the uptake by 50%, read-out: IC50, uptake of [3H]-5-HT
  pIC50: 7.10
